Patent US20130317048A1, “COMBINATION COMPRISING PACLITAXEL FOR TREATING OVARIAN CANCER” (Actelion Pharmaceuticals Ltd., priority 2008, published 2013)

Key:
ovarian cancer = conditions: combined with paclitaxel; cited from earlier work
HeyA8-MDR cells = test: Multi-drug resistant human ovarian HeyA8-MDR tumor growth inhibition assay in mice; assay type: in vivo; conditions: female nude mice i.p. HeyA8-MDR; after 4 weeks of treatment; paclitaxel 5 mg/kg once a week i.p.; CF(I) 50 mg/kg once a day oral
Description: (§1) The vehicle solution is the same as that described for the “Human SKOV3ip1 tumor growth inhibition assay in mice” (see above).
43 female nude mice are injected i.p. with 10^6 HeyA8-MDR cells into the peritoneal cavity. Ten days later, the tumor weight is evaluated in three of the mice. Mice groups and treatments (doses, frequencies and routes) for the mice groups are the same as those described in the experimental procedure for the “Human IGROV tumor growth inhibition assay in mice” (see above). After 4 weeks of treatment, the tumor incidence and weight are determined in each of the mice.

SKOV3ip1 cells = test: Human SKOV3ip1 tumor growth inhibition assay in mice; assay type: in vivo; conditions: mice i.p. SKOV3ip1, after one month of treatment, paclitaxel 5 mg/kg once a week i.p., CF(I) 100 mg/kg once a day oral
Description: An aqueous 0.5% (by weight) solution of methylcellulose is prepared by stiffing the appropriate quantity of methylcellulose in the appropriate quantity of water for 4 hours. This solution can be prepared up to 3 days in advance. On the day of the experiment, 0.05% (by volume) of Tween 80 is dissolved in the methylcellulose solution previously obtained to yield the vehicle solution.
(§2) 43 mice are injected i.p. with 10^6 SKOV3ip1 cells. Ten days later, the tumor weight is evaluated in three of the mice. Treatment with a suspension of the compound of formula (I) in the vehicle solution (10 mice), paclitaxel (Mead Johnson, Princeton, N.J., USA) diluted 1:6 in phosphate buffered saline (PBS) for i.p. injections (10 mice), a suspension of the compound of formula (I) in the vehicle solution as well as paclitaxel diluted 1:6 in PBS for further dilution and i.p. injections (10 mice), or the vehicle solution only (10 mice), the vehicle solution being as described above, is administered to the mice using the following doses, frequencies and routes: • paclitaxel: 5 mg/kg (125 μg paclitaxel in 200 μL PBS per mouse), once a week, i.p. route; • compound of formula (I): 100 mg/kg (as suspension in the vehicle solution at a concentration of up to 25 mg/mL), once a day, oral route.
After one month of treatment, the tumor incidence and weight are determined in each of the mice. At the same time, the ascite incidence and volume are also determined.

IGROV cells = test: Human IGROV tumor growth inhibition assay in mice; assay type: in vivo; conditions: female nude mice i.p. IGROV; after 4 weeks of treatment; paclitaxel 5 mg/kg once a week i.p.; CF(I) 50 mg/kg once a day oral
Description: as §1
as §2, with “43 female nude” for “43”, “IGROV cells into the peritoneal cavity.” for “SKOV3ip1 cells.”, “paclitaxel” for “paclitaxel (Mead Johnson, Princeton, N.J., USA)”, “for” for “for further dilution and”, “50” for “100”
After 4 weeks of treatment, the tumor incidence and weight are determined in each of the mice.

human ovarian carcinoma = conditions: in vitro and in vivo; cited from earlier work
ovarian tumor cells = conditions: in vitro; cited from earlier work

For CCCCN(CCCC)C(=O)CN1C[C@H](c2ccc3c(c2)OCO3)[C@@H](C(=O)O)[C@@H]1c1ccc(OC)cc1 [ABT-627, atrasentan], which “Effect of combination with paclitaxel” value (ovarian cancer) is on record?
The value was “additive antitumor, apoptotic and antiangiogenic effects”.

Which results are given for CCCNS(=O)(=O)Nc1ncnc(OCCOc2ncc(Br)cn2)c1-c1ccc(Br)cc1 [CF(I), macitentan]?
Body weight (g) Mean ± S.D. (HeyA8-MDR cells): 27.0 ± 2.2 g; Tumor incidence (HeyA8-MDR cells): 6/10; Tumor weight (g) Median (range) (HeyA8-MDR cells): 0.1 (0-0.3) g; Ascite incidence (SKOV3ip1 cells): 7/10; Ascites (mL) Median (range) (SKOV3ip1 cells): 0.4 (0-4.7) mL; Body weight (g) Mean ± S.D. (SKOV3ip1 cells): 25.5 ± 2.6 g; Tumor incidence (SKOV3ip1 cells): 7/10; Tumor weight (g) Median (range) (SKOV3ip1 cells): 2.3 (0-4.6) g; Ascite incidence (SKOV3ip1 cells; listed as compound of formula (I)): 7 out of 10; Body weight (g) Mean ± S.D. (IGROV cells): 31.0 ± 4.4 g; Tumor incidence (IGROV cells): 10/10; Tumor weight (g) Median (range) (IGROV cells): 0.7 (0.4-1.3) g

For CC(=O)O[C@H]1C(=O)[C@@]2(C)[C@H]([C@H](OC(=O)c3ccccc3)[C@]3(O)C[C@H](OC(=O)[C@H](O)[C@@H](NC(=O)c4ccccc4)c4ccccc4)C(C)=C1C3(C)C)[C@]1(OC(C)=O)CO[C@@H]1C[C@@H]2O [Paclitaxel], which “Body weight (g) Mean ± S.D.” value (HeyA8-MDR cells) is on record?
The value was 27.7 ± 3.7 g.

And the Tumor incidence (HeyA8-MDR cells)?
Its Tumor incidence is 10/10.

What about the “Tumor weight (g) Median (range)” value (HeyA8-MDR cells) of the same molecule?
Its value is 1.0 (0.5-2.3) g.

What about the Ascite incidence (SKOV3ip1 cells) of the same molecule?
Its Ascite incidence is 4/9.

And the “Ascites (mL) Median (range)” value (SKOV3ip1 cells)?
The value was 0.1 (0-0.2) mL.

And the “Body weight (g) Mean ± S.D.” value (SKOV3ip1 cells)?
The value was 23.6 ± 1.9 g.

And the Tumor incidence (SKOV3ip1 cells)?
Its Tumor incidence is 9/9.

What about the “Tumor weight (g) Median (range)” value (SKOV3ip1 cells) of the same molecule?
The value was 0.4 (0.1-0.5) g.

And the Ascite incidence (SKOV3ip1 cells; listed as paclitaxel)?
Its Ascite incidence is 4 out of 9.

And the Tumor incidence (SKOV3ip1 cells; listed as paclitaxel)?
Its Tumor incidence is “all mice still had tumors”.

What about the “Body weight (g) Mean ± S.D.” value (IGROV cells) of the same molecule?
Its value is 28.5 ± 2.4 g.

And the Tumor incidence (IGROV cells)?
Its Tumor incidence is 9/10.

And the “Tumor weight (g) Median (range)” value (IGROV cells)?
Its value is 0.5 (0-0.9) g.

For COc1nc(C)cnc1NS(=O)(=O)c1cccnc1-c1ccc(-c2nnco2)cc1 [ZD4054], which “Effect on tumor growth and paclitaxel activity” value (human ovarian carcinoma) is on record?
Its value is “inhibits tumor growth and enhances paclitaxel activity”.

Which “Inhibition of cell adhesiveness” value (ovarian tumor cells) does the source give for CCCC[C@@H](NC(=O)[C@@H](Cc1cn(C(=O)OC)c2ccccc12)NC(=O)[C@H](CC(C)(C)C)NC(=O)N1[C@H](C)CCC[C@@H]1C)C(=O)O [BQ 788] here?
Its value is “ineffective”.
